Data taken from paper PMC8037310, “Thrombin-Derived Peptides Potentiate the Activity of Gram-Positive-Specific Antibiotics against Gram-Negative Bacteria” (Molecules, 2021).
Peptide text beside a SMILES is read from it.

Legend:
[1] = tested on: E. coli BW25113; assay: microbe, parasite or virus in culture; format: cell-based, Escherichia coli
[2] = tested on: A. baumannii ATCC17978; assay: microbe, parasite or virus in culture; format: cell-based, Acinetobacter baumannii
Description: (§1) All peptides were screened for antimicrobial activity against E. coli BW25113, E. coli ATCC25922, and E. coli W3110. A select group of the peptides was further tested against E. coli mcr-1, E. coli EQASmcr-1 (EQAS 2016 412016126), E. coli EQASmcr-2 (EQAS 2016 KP37), E. coli EQASmcr-3 (EQAS 2017 2013-SQ352), K. pneumoniae ATCC13883, P. aeruginosa ATCC27853, and A. baumannii ATCC17978. The antimicrobial assay was performed according to CLSI guidelines. Bacteria were plated out directly from their glycerol stocks on blood agar plates, incubated overnight at 37 °C, and then kept in the fridge. The blood agar plates were only used for 2 weeks and then replaced.
(§2) One colony from a blood agar plates was inoculated in Lysogeny Broth (LB) at 37 °C until a 0.5 optical density at 600 nm (OD600) was reached (compared to the sterility control of LB). The bacterial suspension was diluted in fresh LB to 2.0 × 10^6 CFU/mL. The serial dilutions were prepared in polypropylene microtiter plates: a stock of the test compounds was prepared with a 2x final concentration in LB. Moreover, 100 µL of the stock was added to the wells of the top row of which 50 µL was used for the serial dilution. The bottom row of each plate was used as the positive (50 µL of LB) and negative controls (100 µL of LB) (6 wells each). Furthermore, 50 µL of the 2.0 × 10^6 CFU/mL bacterial stock was added to each well except for the negative controls, adding up to a total volume of 100 µL per well. The plates were sealed with a breathable seal and incubated for 20 h at 37 °C and 600 rpm.
(§3) Two 96-well plates were required per compound. A serial dilution of the compound was performed on two plates from row A–G using with LB as medium. Row H was filled with 25 µL medium. On a separate plate a negative control (8 wells, 100 μL medium) was prepared. For all concentrations of antibiotic a specific stock was prepared. 25 µL medium was added to the 0 µg/mL antibiotic columns (plate I, column 1–3). Of each antibiotic stock 25 µL was added to three columns to obtain triplicates for every condition. Both plates contained 50 µL in each well to which 50 µL bacterial stock was added (see the protocol of the MIC assays) and the plates were sealed. After incubation for 20 h at 37 °C while shaking, the breathable seals were removed and the density of the bacterial suspensions measured at 600 nm (OD600) using a Tecan Spark plate reader. The OD600 values were transformed to a 2D gradient with the negative control as minimum and the positive control (wells G1, G2, and G3) as maximum in excel. The FICi was calculated using Equation (1) with a FICi ≤ 0.5 indicating synergy. FICi = (MSCa/MICa) + (MSCb/MICb),(1)
(§4) Calculation of the FICi: MSCa = concentration of the […] in combination with the antibiotic that results in the lowest FICi. MICa = MIC of the antibiotic without synergist (row G). MSCb = concentration of the synergist in combination with the antibiotic that results in the lowest FICi. MICb = MIC of the synergist itself (Column 1–3, plate I).

[3] = tested on: E. coli BW25113; format: cell-based, Escherichia coli
[4] = tested on: E. coli EQASmcr-1 (EQAS 2016 412016126); format: cell-based, Escherichia coli
[5] = tested on: E. coli EQASmcr-2 (EQAS 2016 KP37); format: cell-based, Escherichia coli
[6] = tested on: E. coli W3110; format: cell-based, Escherichia coli
[7] = tested on: E. coli ATCC25922; format: cell-based, Escherichia coli
Method in brief: (§5)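 Checkerboard of peptide serial dilutions against rifampicin concentrations in triplicate, in LB with 1.0 × 10^6 CFU/mL final inoculum after mixing the 2.0 × 10^6 CFU/mL stock 1:1, 20 h at 37 °C shaking. OD600 read; FICi = MSCa/MICa + MSCb/MICb, ≤0.5 taken as synergy.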

[8] = tested on: E. coli mcr-1; format: cell-based, Escherichia coli
Method in brief: as §5

[9] = tested on: E. coli EQASmcr-3 (EQAS 2017 2013-SQ352); format: cell-based, Escherichia coli
[10] = tested on: E. coli BW25113; assay: microbe, parasite or virus in culture; format: cell-based, Escherichia coli; remark: listed apart in the source
[11] = tested on: K. pneumoniae ATCC13883; assay: Checkerboard assay with rifampicin; format: cell-based, Klebsiella pneumoniae; conditions: K. pneumoniae ATCC13883
Description: as §1, §2, §3, §4

[12] = tested on: P. aeruginosa ATCC27853; assay: Checkerboard assay with rifampicin; format: cell-based, Pseudomonas aeruginosa
Description: as §1, §2, §3, §4

CC[C@H](C)[C@H](NC(=O)[C@@H](NC(=O)[C@H](CCCCN)NC(=O)[C@H](CCC(N)=O)NC(=O)[C@@H](NC(=O)[C@H](Cc1c[nH]c2ccccc12)NC(=O)[C@H](CCCCN)NC(=O)[C@H](CCCCN)NC(=O)[C@H](CC(C)C)NC(=O)[C@H](C)NC(=O)[C@H](Cc1ccccc1)NC(=O)[C@@H](N)C(C)C)[C@@H](C)CC)C(C)C)C(N)=O [peptide 10] (H-VFALKKWIQKVI-NH2)
MSCnovo ([1]; novobiocin concentration in the combination giving the lowest FICi, E. coli BW25113): 6.25 µg/mL | MICpeptide ([1]; synergist alone, E. coli BW25113, from checkerboard with novobiocin): 100 µg/mL | MSCpeptide ([1]; synergist concentration in the combination with novobiocin giving the lowest FICi, E. coli BW25113): 6.25 µg/mL | FICi ([1]; with novobiocin vs E. coli BW25113): 0.0781 | MICpeptide ([2]; peptide alone, A. baumannii ATCC17978): 50 µg/mL | MSCpeptide ([2]; peptide concentration in the combination with rifampicin giving the lowest FICi, A. baumannii ATCC17978): 3.125 µg/mL | MSCrif ([2]; rifampicin concentration in the combination giving the lowest FICi, A. baumannii ATCC17978): 0.125 µg/mL | FICi ([2]; with rifampicin vs A. baumannii ATCC17978): 0.1250 | MICpep ([3]; synergist alone, E. coli BW25113, from checkerboard with rifampicin): 100 µg/mL | MSCpep ([3]; synergist concentration in the combination with rifampicin giving the lowest FICi, E. coli BW25113): 12.5 µg/mL | MICpeptide ([4]; peptide alone, E. coli EQASmcr-1): 200 µg/mL | MSCpeptide ([4]; peptide concentration in the combination with rifampicin giving the lowest FICi, E. coli EQASmcr-1): 12.5 µg/mL | MSCrif ([4]; rifampicin concentration in the combination giving the lowest FICi, E. coli EQASmcr-1): 0.125 µg/mL | FICi ([4]; with rifampicin vs E. coli EQASmcr-1): 0.0781 | FICi ([5]; EQASmcr-2 (EQAS 2016 KP37, 20 h)): 0.1406 | MICpeptide ([5]; peptide alone, E. coli EQASmcr-2): 100 µg/mL | MSCpeptide ([5]; peptide concentration in the combination with rifampicin giving the lowest FICi, E. coli EQASmcr-2): 12.5 µg/mL | MSCrif ([5]; rifampicin concentration in the combination giving the lowest FICi, E. coli EQASmcr-2): 0.125 µg/mL | MICpeptide ([6]; peptide alone, E. coli W3110): 25 µg/mL | MSCpeptide ([6]; peptide concentration in the combination with rifampicin giving the lowest FICi, E. coli W3110): 12.5 µg/mL | MSCrif ([6]; rifampicin concentration in the combination giving the lowest FICi, E. coli W3110): 0.125 µg/mL | FICi ([6]; with rifampicin vs E. coli W3110, synergy defined as FICi ≤ 0.5): > 0.5 | FICi ([7]; ATCC25922, 20 h): 0.0313 | MICpeptide ([7]; peptide alone, E. coli ATCC25922): > 200 µg/mL | MSCpeptide ([7]; peptide concentration in the combination with rifampicin giving the lowest FICi, E. coli ATCC25922): 6.25 µg/mL | MSCrif ([7]; rifampicin concentration in the combination giving the lowest FICi, E. coli ATCC25922): 0.063 µg/mL | MICpeptide ([8]; peptide alone, E. coli mcr-1): > 200 µg/mL | MSCpeptide ([8]; peptide concentration in the combination with rifampicin giving the lowest FICi, E. coli mcr-1): 25 µg/mL | MSCrif ([8]; rifampicin concentration in the combination giving the lowest FICi, E. coli mcr-1): 0.188 µg/mL | FICi ([8]; with rifampicin vs E. coli mcr-1): 0.0781 | MICpeptide ([9]; peptide alone, E. coli EQASmcr-3): 200 µg/mL | MSCpeptide ([9]; peptide concentration in the combination with rifampicin giving the lowest FICi, E. coli EQASmcr-3): 12.5 µg/mL | MSCrif ([9]; rifampicin concentration in the combination giving the lowest FICi, E. coli EQASmcr-3): 0.125 µg/mL | FICi ([9]; with rifampicin vs E. coli EQASmcr-3): 0.0781 | FICi ([10]; BW25113, 20 h): 0.1563 | MICpeptide ([10]; synergist alone, E. coli BW25113, from checkerboard with vancomycin): 100 µg/mL | MSCpeptide ([10]; synergist concentration in the combination with vancomycin giving the lowest FICi, E. coli BW25113): 12.5 µg/mL | MSCvanco ([10]; vancomycin concentration in the combination giving the lowest FICi, E. coli BW25113): 12.5 µg/mL | MICpeptide ([11]; peptide alone): > 200 µg/mL | MSCpeptide ([11]; peptide concentration in the combination with rifampicin giving the lowest FICi): 12.5 µg/mL | MSCrif ([11]; rifampicin concentration in the combination giving the lowest FICi): 1 µg/mL | MICpeptide ([12]; peptide alone, P. aeruginosa ATCC27853): > 200 µg/mL | MSCpeptide ([12]; peptide concentration in the combination with rifampicin giving the lowest FICi, P. aeruginosa ATCC27853): 100 µg/mL | MSCrif ([12]; rifampicin concentration in the combination giving the lowest FICi, P. aeruginosa ATCC27853): 4 µg/mL | FICi ([12]; with rifampicin vs P. aeruginosa ATCC27853, synergy defined as FICi ≤ 0.5): 0.2500
